The values below are quoted from earlier work in US7550449B2, “Carba cyclic phosphatidic acid derivative” (priority 2002, dated 2009).

The test system of data set [1] is MM1 cells, highly invasive clones of a rat ascites hepatoma cell line (AH-130). The settings on record: literature (Mukai et al. 1999).
Another data set has as its system Rho. The settings on record: literature (Mukai et al. 2000).
For data set [2], the system named is human fibrosarcoma cells (HT-1080). The settings on record: cells require neither serum nor LPA for invasion; literature.
Another data set has as its system MM1 cells. The following applies: within several minutes of addition, effect not lost with LPA, literature.

On to `CCCCCCCCCCCCCCCC(=O)OCC1COP(=O)(O)O1` (stereo not shown) [Pal-cPA], for which the “invasion suppressing activity among cPA derivatives with different fatty acids at sn-1” value in data set [1] is given as “strongest invasion suppressing activity”. Besides, in the data set on Rho, the “LPA-mediated Rho activation” value is “inhibited”. For the same molecule, the “suppression of invasion of HT-1080 cells” value in data set [2] was “significantly suppressed”. Further, the “intracellular cAMP concentration” value in the data set on MM1 cells is reported as “elevated”.
